Literature values, collected in patent US10035822B2, “Cell-reactive, long-acting, or targeted compstatin analogs and related compositions and methods” (APELLIS PHARMACEUTICALS, INC., priority 2012, dated 2018).
Non-standard residues stand in square brackets, D forms with d. Trp(6-F) = N[C@@H](Cc1c[nH]c2cc(F)ccc12)C(=O)O; Bpa = N[C@@H](Cc1ccc(C(=O)c2ccccc2)cc1)C(=O)O; 1Nal = N[C@@H](Cc1cccc2ccccc12)C(=O)O; 2Nal = N[C@@H](Cc1ccc2ccccc2c1)C(=O)O

test system: complement activation; details: relative to compstatin amidated at the C-terminus; published data (WO2004/026328, WO2007044668, Mallik 2005, Katragadda 2006); cited from earlier work

Row | Substance | Activity over compstatin
1 | Ac-ICV(1-Nal)QDWGAHRCT-COOH (Ac-ICV[1Nal]QDWGAHRCT-OH; cysteine pairing not given here) [Ac V4(1-Nal)/H9A-OH] | 30× more
2 | Ac-ICV(2-IgI)QDWGAHRCT-CONH2 (Ac-ICV[2‑Igl]QDWGAHRCT-NH2; cysteine pairing not given here) [Ac-V42IgI/H9A] | 39× more
3 | Ac-ICV(2-IgI)QDWGAHRCT-COOH (Ac-ICV[2‑Igl]QDWGAHRCT-OH; cysteine pairing not given here) [Ac-V42IgI/H9A-OH] | 37× more
4 | Ac-ICV(2-Nal)QDWGAHRCT-CONH2 (Ac-ICV[2Nal]QDWGAHRCT-NH2; cysteine pairing not given here) [Ac-V4(2-Nal)/H9A] | 99× more
5 | Ac-ICV(2-Nal)QDWGAHRCT-COOH (Ac-ICV[2Nal]QDWGAHRCT-OH; cysteine pairing not given here) [Ac V4(2-Nal)/H9A-OH] | 38× more
6 | Ac-ICV(5-methyl-W)QDWGAHRCT-CONH2 [Ac-V4(5-MeW)/H9A] | 67× more
7 | Ac-ICV(5fW)QDWGAHRCT-CONH2 [Ac-V4(5fW)/H9A] | 31× more
8 | Ac-ICV(Bpa)QDWGAHRCT-CONH2 (Ac-ICV[Bpa]QDWGAHRCT-NH2; cysteine pairing not given here) [Ac-V4(Bpa)/H9A] | 86× more
9 | Ac-ICV(Bpa)QDWGAHRCT-COOH (Ac-ICV[Bpa]QDWGAHRCT-OH; cysteine pairing not given here) [Ac-V4(Bpa)/H9A-OH] | 49× more
10 | Ac-ICVDhtQDWGAHRCT-COOH [Ac-V4Dht/H9A-OH] | 5× more
11 | Ac-ICVVQDWGHHRCT-CONH2 [Ac-compstatin] | 3× more
12 | Ac-ICVWQD(5fW)GAHRCT-CONH2 [Ac-V4W/W7(5fW)/H9A] | 121× more
13 | Ac-ICVWQDWGAHRCT-CONH2 [Ac-V4W/H9A] | 45× more
14 | Ac-ICVWQDWGAHRCdT-COOH [Ac-V4W/H9A/T13dT-OH] | 55× more
15 | Ac-ICVYQDWGAHRCT-CONH2 [Ac-V4Y/H9A] | 14× more
16 | H-GICV(6fW)QD(6fW)GAHRCTN-COOH (H-GICV[Trp(6-F)]QD[Trp(6-F)]GAHRCTN-OH; cysteine pairing not given here) [+G/V4(6fW)/W7(6fW)H9A + N-OH] | 126× more
